According to publication PMC9896555, “Cyclic Acetals as Novel Long-Lasting Mosquito Repellents” (Journal of Agricultural and Food Chemistry, 2023):

Each molecule was assayed on Aedes albopictus (assay: Effective dose / protection efficacy, human-bait technique). Conditions: Aedes albopictus, topical; 0.081 µg/cm2; read-out: Protection efficacy PE%.
Assay type: in vivo
Protocol: The repellence of DEET, Icaridin (both supplied by Istituto Biochimico VEBI s.r.l.), acetals, and the synthesized hydroxyacetals was evaluated againstAedes albopictususing the human-bait technique (to simulate the condition of human skin on which repellents will be applied).[22]A. albopictuswas reared and tested at 26 ± 2 °C, ≥60 ± 10% relative humidity (RH), and at 14:10 h light/dark photoperiod, within Plexiglas cylindrical laboratory cages (35 cm diameter, 60 cm length) with one end closed by a net. During the tests, cages contained ≈150 nulliparous, 4–7 day-old, nonblood-fed females. For each compound to be tested, up to six volunteers participated in the trial.
The study was approved by the Regional Ethics Committee for Clinical Trials of Tuscany Region with the registered number 20383. Volunteers agreed to take part in the experiments following informed consent; only volunteers non-allergic to mosquito bites participated in the trials. On the day of the bioassay, they had no contact with lotions, perfumes, oils, or perfumed soaps. They wore latex surgical gloves, in which a dorsal square area of 30 cm^2 was cut open. Mosquito-exposed skin was treated with 50 μL of ethanol, as the negative hand control. The other hand was treated with 50 μL of the tested compounds in ethanol solution (dosages corresponding to 0.081, 0.17, 0.33, 0.5, 0.83, 1.7, 8.3, 16.7, and 83.3 μg/cm^2). Both hands were presented in the same test cage. The number of probing mosquitoes in a 3 min exposure period was recorded. During each test, the control and the treated hand were presented interchanged to verify the mosquitoes’ readiness to bite. Trials were considered valid only if at least 30 mosquitoes performed probing behavior on the control hand before each repellent dosage was tested. The protection efficacy (PE %) obtained from all replicates was calculated, according to the WHO guidelines[31] using this formula [drawing 1]
To evaluate the protection efficacy, volunteers applied increasing doses of the compounds to the skin on the back of their hands (30 cm^2, while the rest was covered with a rubber glove) and counted the number of mosquitoes attempting to bite; the solvent only was used on the control hand. The protection (percentage of repelled mosquitoes) was calculated as reported in the Material and Methods section.

Compound | pest or weed control at 0.081 µg/cm2, 0.081 µg/cm2 [%]
CCN(CC)C(=O)c1cccc(C)c1 [DEET, N,N-diethyl-3-methylbenzamide, reference compound] | 18.9
CCCCC1(CCCC)OCC(C)(CO)CO1 [16b] | 0
CCCCCCCCCC1(C)OCC(CO)O1 (centres unmarked) [22a] | 2.83
CCCCCCCC1(C)OCC(CO)O1 (centres unmarked) [15a] | 7.74

Same assay, conditions: Aedes albopictus, topical; 0.17 µg/cm2; read-out: Protection efficacy PE%

Compound | pest or weed control at 0.17 µg/cm2, 0.17 µg/cm2 [%]
CCN(CC)C(=O)c1cccc(C)c1 [DEET, N,N-diethyl-3-methylbenzamide, reference compound] | 34.7
CCCCC1(CCCC)OCC(C)(CO)CO1 [16b] | 40.6
CCCCCCCCCC1(C)OCC(CO)O1 (centres unmarked) [22a] | 32.6
CCCCCCCC1(C)OCC(CO)O1 (centres unmarked) [15a] | 35.8

Same assay, conditions: Aedes albopictus, topical; 0.33 µg/cm2; read-out: Protection efficacy PE%

Compound | pest or weed control at 0.33 µg/cm2, 0.33 µg/cm2 [%]
CCN(CC)C(=O)c1cccc(C)c1 [DEET, N,N-diethyl-3-methylbenzamide, reference compound] | 67.3
CCCCC1(CCCC)OCC(C)(CO)CO1 [16b] | 31.2
CCCCCCCCCC1(C)OCC(CO)O1 (centres unmarked) [22a] | 50
CCCCCCCC1(C)OCC(CO)O1 (centres unmarked) [15a] | 45.9

Same assay, conditions: Aedes albopictus, topical; 0.5 µg/cm2; read-out: Protection efficacy PE%

Compound | pest or weed control at 0.5 µg/cm2, 0.5 µg/cm2 [%]
CCN(CC)C(=O)c1cccc(C)c1 [DEET, N,N-diethyl-3-methylbenzamide, reference compound] | 74.4
CCCCC1(CCCC)OCC(C)(CO)CO1 [16b] | 68.4
CCCCCCCCCC1(C)OCC(CO)O1 (centres unmarked) [22a] | 37.5
CCCCCCCC1(C)OCC(CO)O1 (centres unmarked) [15a] | 54.7

Same assay, conditions: Aedes albopictus, topical; 0.83 µg/cm2; read-out: Protection efficacy PE%

Compound | pest or weed control at 0.83 µg/cm2, 0.83 µg/cm2 [%]
CCN(CC)C(=O)c1cccc(C)c1 [DEET, N,N-diethyl-3-methylbenzamide, reference compound] | 79.8
CCCCC1(CCCC)OCC(C)(CO)CO1 [16b] | 94.7
CCCCCCCCCC1(C)OCC(CO)O1 (centres unmarked) [22a] | 65.4
CCCCCCCC1(C)OCC(CO)O1 (centres unmarked) [15a] | 62.2

Same assay, conditions: Aedes albopictus, topical; 1.7 µg/cm2; read-out: Protection efficacy PE%

Compound | pest or weed control at 1.7 µg/cm2, 1.7 µg/cm2 [%]
CCN(CC)C(=O)c1cccc(C)c1 [DEET, N,N-diethyl-3-methylbenzamide, reference compound] | 88.6
CCCCC1(CCCC)OCC(C)(CO)CO1 [16b] | 100
CCCCCCCCCC1(C)OCC(CO)O1 (centres unmarked) [22a] | 94.2
CCCCCCCC1(C)OCC(CO)O1 (centres unmarked) [15a] | 89.4

Same assay, conditions: Aedes albopictus, topical; 8.3 µg/cm2; read-out: Protection efficacy PE%

Compound | pest or weed control at 8.3 µg/cm2, 8.3 µg/cm2 [%]
CCN(CC)C(=O)c1cccc(C)c1 [DEET, N,N-diethyl-3-methylbenzamide, reference compound] | 100
CCCCC1(CCCC)OCC(C)(CO)CO1 [16b] | 100
CCCCCCCCCC1(C)OCC(CO)O1 (centres unmarked) [22a] | 100
CCCCCCCC1(C)OCC(CO)O1 (centres unmarked) [15a] | 98.8

Same assay, conditions: Aedes albopictus, topical; 16.7 µg/cm2; read-out: Protection efficacy PE%

Compound | pest or weed control at 16.7 µg/cm2, 16.7 µg/cm2 [%]
CCN(CC)C(=O)c1cccc(C)c1 [DEET, N,N-diethyl-3-methylbenzamide, reference compound] | 100
CCCCC1(CCCC)OCC(C)(CO)CO1 [16b] | 100
CCCCCCCCCC1(C)OCC(CO)O1 (centres unmarked) [22a] | 100
CCCCCCCC1(C)OCC(CO)O1 (centres unmarked) [15a] | 100

Same assay, conditions: Aedes albopictus, topical; 83.3 µg/cm2; read-out: Protection efficacy PE%

Compound | pest or weed control at 83.3 µg/cm2, 83.3 µg/cm2 [%]
CCN(CC)C(=O)c1cccc(C)c1 [DEET, N,N-diethyl-3-methylbenzamide, reference compound] | 100
CCCCC1(CCCC)OCC(C)(CO)CO1 [16b] | 100
CCCCCCCCCC1(C)OCC(CO)O1 (centres unmarked) [22a] | 100
CCCCCCCC1(C)OCC(CO)O1 (centres unmarked) [15a] | 100

Same assay, conditions: Table S1

Compound | 100% PE [µg/cm2]
CCN(CC)C(=O)c1cccc(C)c1 [DEET, N,N-diethyl-3-methylbenzamide, reference compound] | 8.3
CCCCC1(CCCC)OCC(C)(CO)CO1 [16b] | 1.7
CCCCCCCC1(C)OCC(CO)O1 (centres unmarked) [15a] | 16.7

Same assay, conditions: applied on skin of volunteers, 3 min exposure

Compound | Protection efficacy (dose to obtain complete protection (100%) from bite attempts) [μg/cm^2]
CCN(CC)C(=O)c1cccc(C)c1 [DEET, N,N-diethyl-3-methylbenzamide, reference compound] | 8.3
CCCCC1(CCCC)OCC(C)(CO)CO1 [16b] | 1.7
CCCCCCCCCC1(C)OCC(CO)O1 (centres unmarked) [22a] | 8.3
CCCCCCCC1(C)OCC(CO)O1 (centres unmarked) [15a] | 16.7

These molecules were tested on Aedes albopictus (assay: Protection time at 0.17 mg/cm2, human-bait technique). Conditions: Aedes albopictus, topical; 0.17mg/cm2, 1 h; read-out: Protection time PE%.
Assay type: in vivo
Protocol: To evaluate the protection time of derivatives, the PE % was measured with 100 μL of a 5% ethanol solution, corresponding to 0.17 mg/cm^2 of exposed skin, under the same laboratory conditions. Mosquito-exposed skin was treated with 100 μL of ethanol, as the negative hand control. For each volunteer (up to 8), the test was performed every hour, up to 8 h from the application. The protection time of DEET and Icaridin was measured under the same conditions. Since these trials were run in parallel with those aimed to profile the cytotoxicity of the compounds (paragraph 2.6), we interrupted the experiments for those compounds showing to have higher cytotoxicity than Icaridin and DEET as soon as the results were available. For this reason, the number of volunteers differs among the compounds.
The average time until protection which was higher than 95% protection time was considered for each compound. Moreover, for the compounds tested on at least three volunteers, the complete (100%) protection time was also estimated (SPSS 28.01.0) using the Kaplan–Meier survivor function procedure.[22]

Compound | pest or weed control at 0.17 mg/cm2, 0.17 mg/cm2 [%]
CCN(CC)C(=O)c1cccc(C)c1 [DEET, N,N-diethyl-3-methylbenzamide, reference compound] | 98
CCCCC1(CCCC)OCC(C)(CO)CO1 [16b] | 98.6
CCCCCCCCCC1(C)OCC(CO)O1 (centres unmarked) [22a] | 100
CCCCCCCC1(C)OCC(CO)O1 (centres unmarked) [15a] | 100

Same assay, conditions: Aedes albopictus, topical; 0.17mg/cm2, 2 h; read-out: Protection time PE%

Compound | pest or weed control at 0.17 mg/cm2, 0.17 mg/cm2 [%]
CCN(CC)C(=O)c1cccc(C)c1 [DEET, N,N-diethyl-3-methylbenzamide, reference compound] | 87.4
CCCCC1(CCCC)OCC(C)(CO)CO1 [16b] | 97.5
CCCCCCCCCC1(C)OCC(CO)O1 (centres unmarked) [22a] | 100
CCCCCCCC1(C)OCC(CO)O1 (centres unmarked) [15a] | 99.6

Same assay, conditions: Aedes albopictus, topical; 0.17mg/cm2, 3 h; read-out: Protection time PE%

Compound | pest or weed control at 0.17 mg/cm2, 0.17 mg/cm2 [%]
CCN(CC)C(=O)c1cccc(C)c1 [DEET, N,N-diethyl-3-methylbenzamide, reference compound] | 81.4
CCCCC1(CCCC)OCC(C)(CO)CO1 [16b] | 99.5
CCCCCCCCCC1(C)OCC(CO)O1 (centres unmarked) [22a] | 98.9
CCCCCCCC1(C)OCC(CO)O1 (centres unmarked) [15a] | 100

Same assay, conditions: Aedes albopictus, topical; 0.17mg/cm2, 4 h; read-out: Protection time PE%

Compound | pest or weed control at 0.17 mg/cm2, 0.17 mg/cm2 [%]
CCN(CC)C(=O)c1cccc(C)c1 [DEET, N,N-diethyl-3-methylbenzamide, reference compound] | 59.4
CCCCC1(CCCC)OCC(C)(CO)CO1 [16b] | 96.3
CCCCCCCCCC1(C)OCC(CO)O1 (centres unmarked) [22a] | 98.2
CCCCCCCC1(C)OCC(CO)O1 (centres unmarked) [15a] | 100

Same assay, conditions: Aedes albopictus, topical; 0.17mg/cm2, 5 h; read-out: Protection time PE%

Compound | pest or weed control at 0.17 mg/cm2, 0.17 mg/cm2 [%]
CCCCC1(CCCC)OCC(C)(CO)CO1 [16b] | 95.1
CCCCCCCCCC1(C)OCC(CO)O1 (centres unmarked) [22a] | 95.2
CCCCCCCC1(C)OCC(CO)O1 (centres unmarked) [15a] | 97.7

Same assay, conditions: Aedes albopictus, topical; 0.17mg/cm2, 6 h; read-out: Protection time PE%

Compound | pest or weed control at 0.17 mg/cm2, 0.17 mg/cm2 [%]
CCCCC1(CCCC)OCC(C)(CO)CO1 [16b] | 93.7
CCCCCCCCCC1(C)OCC(CO)O1 (centres unmarked) [22a] | 99.5
CCCCCCCC1(C)OCC(CO)O1 (centres unmarked) [15a] | 98.5

Same assay, conditions: Aedes albopictus, topical; 0.17mg/cm2, 7 h; read-out: Protection time PE%

Compound | pest or weed control at 0.17 mg/cm2, 0.17 mg/cm2 [%]
CCCCC1(CCCC)OCC(C)(CO)CO1 [16b] | 96.2
CCCCCCCCCC1(C)OCC(CO)O1 (centres unmarked) [22a] | 96.6
CCCCCCCC1(C)OCC(CO)O1 (centres unmarked) [15a] | 97.5

Same assay, conditions: Aedes albopictus, topical; 0.17mg/cm2, 8 h; read-out: Protection time PE%

Compound | pest or weed control at 0.17 mg/cm2, 0.17 mg/cm2 [%]
CCCCC1(CCCC)OCC(C)(CO)CO1 [16b] | 94.6
CCCCCCCCCC1(C)OCC(CO)O1 (centres unmarked) [22a] | 90
CCCCCCCC1(C)OCC(CO)O1 (centres unmarked) [15a] | 96.7

Same assay, conditions: at the dose of 0.17mg/cm2

Compound | Average PT >95% (% coefficient of variation)
CCN(CC)C(=O)c1cccc(C)c1 [DEET, N,N-diethyl-3-methylbenzamide, reference compound] | 120 (1.4) min
CCCCC1(CCCC)OCC(C)(CO)CO1 [16b] | 420 (8.0) min
CCCCCCCCCC1(C)OCC(CO)O1 (centres unmarked) [22a] | 420 (3.5) min
CCCCCCCC1(C)OCC(CO)O1 (centres unmarked) [15a] | 480 (6.0) min

Same assay, conditions: at the dose of 0.17mg/cm2; Kaplan–Meier estimate

Compound | Estimated 100% PT (complete protection time, mean±SE) [min]
CCN(CC)C(=O)c1cccc(C)c1 [DEET, N,N-diethyl-3-methylbenzamide, reference compound] | 120 ± 26
CCCCC1(CCCC)OCC(C)(CO)CO1 [16b] | 180 ± 64
CCCCCCCCCC1(C)OCC(CO)O1 (centres unmarked) [22a] | 380 ± 105
CCCCCCCC1(C)OCC(CO)O1 (centres unmarked) [15a] | 380 ± 61

Same assay, conditions: dose of 0.17 mg/cm^2; tests ended after 8 h

Compound | Protection time (95% protection) [h]
CCN(CC)C(=O)c1cccc(C)c1 [DEET, N,N-diethyl-3-methylbenzamide, reference compound] | 2
CCCCC1(CCCC)OCC(C)(CO)CO1 [16b] | 7
CCCCCCCCCC1(C)OCC(CO)O1 (centres unmarked) [22a] | 7
CCCCCCCC1(C)OCC(CO)O1 (centres unmarked) [15a] | 8
